According to US20080161232A1, “C5a Receptor Antagonist” (JERINI AG, priority 2005, published 2008):
Read-outs that look alike come from different tables or passages of the source. Starred links: 1 amine or outer side, 2 acyl side, 3 side chain; linkers in the order of their positions; H or OH if unused. Positions of bridges follow the written chain, without caps; N, C: chain ends. Non-standard residues stand in square brackets, D forms with d. Residues, ends and D or L forms follow the SMILES beside them. X1 = COC1O[C@H](C(=O)[*:2])[C@@H](O)[C@H](O)[C@H]1N[*:1]; Hyp = O=C(O)[C@@H]1C[C@@H](O)CN1; dCha = N[C@H](CC1CCCCC1)C(=O)O; Nle = CCCC[C@H](N)C(=O)O; Orn = NCCC[C@H](N)C(=O)O

Experiments:
human C5aR(CD88) [1] = target: T1, human C5aR(CD88) (Homo sapiens, UniProt P21730); experiment: Determination of the IC50 value in an enzyme release assay (functional assay, antagonistic activity); assay type: cell-based; details: for inhibitory activity (in words): functional assay of example 11, noteworthy = IC50 less than 200 nM
T1 construct: expressed in transfected cells; host or cells: rat basophilic leukemia cells (RBL)
T1 sequence (P21730 1-350): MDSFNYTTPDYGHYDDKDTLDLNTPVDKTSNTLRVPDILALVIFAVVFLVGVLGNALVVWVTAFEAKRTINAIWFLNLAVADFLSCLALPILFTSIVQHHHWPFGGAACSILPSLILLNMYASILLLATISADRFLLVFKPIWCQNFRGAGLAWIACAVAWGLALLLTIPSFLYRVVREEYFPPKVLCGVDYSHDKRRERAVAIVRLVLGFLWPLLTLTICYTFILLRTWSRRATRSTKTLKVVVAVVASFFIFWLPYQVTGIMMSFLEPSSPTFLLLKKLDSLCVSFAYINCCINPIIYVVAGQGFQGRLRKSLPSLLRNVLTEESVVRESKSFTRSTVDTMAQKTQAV

C5aR [2] = target: T2, C5aR (Homo sapiens, UniProt P21730); details: compound numbers of WO 03/033528; read-out: IC50 as a measure for affinity, WO 03/033528; cited from earlier work
T2 construct: measurements with isolated membranes from polymorphonuclear neutrophilic granulocytes (PMN membranes); host or cells: isolated PMN membranes (endogenous receptor)
T2 sequence (P21730 1-350): T1 sequence (P21730 1-350)

human C5aR(CD88) [3] = target: T1, human C5aR(CD88); experiment: Determination of EC50-values in an enzyme release assay (agonistic activity); assay type: cell-based; details: for agonistic activity (in words): cellular assay, up to a concentration of at least 1430 nM
Description: The assay procedure was described by Kohl (Kohl 1997 The Anaphylatoxins. In: Dodds, A. W., Sim, R. B. (Eds.), Complement: A Practical Approach. Oxford, pp. 135-163). Basophilic leukemia cells from rats (RBL), which express the human C5aR(CD88), were cultivated in DMEM with 10% fetal bovine serum, 100 U/ml penicillin, 100 μg/ml streptomycin and 2 mM glutamine (all components of the media from Biochrome, Berlin) to confluence at 37° C. and 10% CO2. The following specifications refer to single cell culture flask having a surface of 75 cm^2. Medium was decanted from cells. Cells were washed with 10 ml PBS (Dulbecco's PBS, Biochrome) and subsequently overlayed with 3 ml Cell Dissociation Solution (CDS, Sigma). Cells were incubated for 1 min at room temperature. Subsequently, CDS was removed and the cells were further incubated for 10-15 min at 37° C. for dissociation. In the assay, 20 μl of the solution containing the compound to be tested were used. This solution should not contain more than 2.8% DMSO. For the dilution process, the compounds were diluted in ⅓ or ½ steps. To 20 μl compound solution 75 μl of the RBL-cells were added, which were treated as follows: after dissociation cells were detached and warmed at 37° C. in 10 ml HAG-CM (20 mM HEPES; 125 mM NaCl, 5 mM KCl, 1 mM CaCl2, 1 mM MgCl2, 0,5 mM Glucose, 0,25% BSA. HEPES-preparation: 2.3 g/l HEPES-salt +2.66 g/l HEPES acid). Cells were counted and centrifuged (200×g, 10 min). The cell pellet was resuspended in preheated HAG-CM (i.e. Hepes-buffer NaCl-glucose-solution with calcium and magnesium), and the cell density was adjusted to 2×10^6 cells/ml. The cells were incubated at 37° C. for 5 min. Per ml cell suspension 27 μl of a cytochalasin B-solution were added (100 μg/ml in DMSO, Sigma). The cells were incubated for further 3 min at 37° C. 75 μl of the cell suspension were added to 20 μl compound solution leading to a volume of 95 μl per well. After incubation of the cells for 10 min at 37° C. 10 μl hrC5a (10.5 nM in HAG-CM, Sigma) per well were added. The cells were incubated for additional 5 min at 37° C. The mtp was then transferred to ice and centrifuged for 3 min at 4° C. with 1200×g. 75 μl of the supernatant were added to 100 μl substrate-solution (2.7 mg/ml p-nitrophenyl-N-acetyl-β-D-glucosaminide (Sigma) in 42.5 mM Na-acetate pH 4.5). The mtp was incubated for further 60 min at 37° C. 75 μl 0.4 M glycine pH 10.4 were added per well. The mtp was transferred into a reader and the absorption at 405 nm was measured. IC50-values were obtained following the equation; y=((A-D)/(1+(x/C)^B))+D.
Determination of EC50-Values in an Enzyme Release Assay
The determination of EC50-values was performed according to the procedure given in example II, with the exception that 30 μl of the test compound need to be mixed with 75 μl of the cell suspension mentioned in example 11. Neither preincubation nor addition of C5a for stimulation of enzyme release is needed.

[4] = Solubility determination for selected C5aR-antagonists; assay type: physicochemical; details: for Solubility in 20 mM HEPES pH 7.4 (% of 200 μM): 20 mM HEPES pH 7.4, 24 h at RT
Description: Solubility Determination for Selected C5aR-Antagonists
[…] The undissolved part was removed by centrifugation after 24 h. The UV-absorption of the supernatant was measured and compared to a reference solution of the compound in 60% MeOH.

C5aR [5] = target: T2, C5aR; details: compound numbers of WO 03/033528; read-out: antagonistic activity, WO 03/033528; cited from earlier work
[6] = Measurement of the AB-permeability in a TC-7 based assay-system; assay type: in vitro ADME; details: human
Description: Measurement of the AB-Permeability in a TC-7 Based Assay-System The screening compounds are diluted to a 50 μM solution in HBSS-MES (5 mM, pH 6.5) from 10 mM stock solution in 100% DMSO. ^14C-mannitol (approx. 4 μM) is added to the sample. The solution is centrifuged and the supernatant is added to the apical side of the TC-7 cell culture (passage 15, in 24 well transwell plate) to a final DMSO-concentration of 1%. HBSS-HEPES (5 mM, pH 7.4) is placed at the basolateral side. The cells were incubated for 120 min at 37° C.

C5aR [7] = target: T2, C5aR; details: PMN membranes, cited from earlier work
human PMNs = details: cellular myeloperoxidase release assay with human PMNs; read-out: IC50 (antagonistic activity), WO 99/00406; cited from earlier work
[8] = antagonistic activity, IC50 group in enzyme release assay, RBL cells expressing human C5aR(CD88), read-out: activity (group)
[9] = agonistic activity, no C5a added, read-out: EC50
[10] = examples of WO 90/09162, read-out: IC50 (binding), WO 90/09162
[11] = examples of WO 92/12168, read-out: IC50 (binding to C5aR), WO 92/12168

| IC50 (human C5aR(CD88) [1]; [8]) [nM] | inhibitory activity (in words) (human C5aR(CD88) [1]) | Solubility in 20 mM HEPES pH 7.4 (% of 200 μM) [4] | solubility in aqueous HEPES buffer (pH 7.4) [4] [%] | Molecule | further results |
| --- | --- | --- | --- | --- | --- |
|  |  | 84 % of 200 μM | 84 | CCCC[C@@H]1NC(=O)[C@H](Cc2c[nH]c3ccccc23)NC(=O)[C@@H](CC2CCCCC2)NC(=O)[C@@H]2CCCN2C(=O)[C@@H](NC(=O)[C@H](Cc2ccccc2)NC(=O)[C@H]2OC(OC)[C@H](NC(C)=O)[C@@H](O)[C@@H]2O)CCCNC1=O (stereo partly drawn) [Compound 4, X-Phe-[Orn-Pro-cha-Trp-Nle]; X = 2-acetamido-1-methyl-glucuronyl] (Ac-[X1]F[Orn]P[dCha]W[Nle]; lactam 3-C) |  |
| 20 to 50 | without significant loss of activity | 22 % of 200 μM | 22 | CCCC[C@@H]1NC(=O)[C@H](Cc2c[nH]c3ccccc23)NC(=O)[C@@H](CC2CCCCC2)NC(=O)[C@@H]2CCCN2C(=O)[C@@H](NC(=O)[C@H](Cc2ccccc2)NC(C)=O)CCCNC1=O [Compound 28, Ac-Phe-[Orn-Pro-cha-Trp-Nle]] (Ac-F[Orn]P[dCha]W[Nle]; lactam 2-C) | inhibitory activity (in words) (human C5aR(CD88) [1]; listed as Ac-Phe-[Orn-Pro-cha-Trp-Nle]): noteworthy inhibitory activity; EC50 (human C5aR(CD88) [3]; [9]): > 1430 nM |
| 10 to 20 | noteworthy inhibitory activity | 45 % of 200 μM |  | CCCC[C@@H]1NC(=O)[C@H](Cc2c[nH]c3ccccc23)NC(=O)[C@@H](CC2CCCCC2)NC(=O)[C@@H]2CCCN2C(=O)[C@@H](NC(=O)[C@@H](N)Cc2ccccc2)CCCNC1=O [Compound 42, H-Phe-[Orn-Pro-cha-Trp-Nle]] (H-F[Orn]P[dCha]W[Nle]; lactam 2-C) | EC50 (human C5aR(CD88) [3]; [9]): > 1430 nM; agonistic activity (in words) (human C5aR(CD88) [3]): pure antagonists |
|  | noteworthy inhibitory activity | 93 % of 200 μM |  | CCCC[C@@H]1NC(=O)[C@H](Cc2c[nH]c3ccccc23)NC(=O)[C@@H](CC2CCCCC2)NC(=O)[C@@H]2CCCN2C(=O)[C@@H](NC(=O)[C@H](Cc2ccccc2)NC(=O)[C@H](CCCCN)NC(C)=O)CCCNC1=O [Compound 43, Ac-Lys-Phe-[Orn-Pro-cha-Trp-Nle]] (Ac-KF[Orn]P[dCha]W[Nle]; lactam 3-C) | agonistic activity (in words) (human C5aR(CD88) [3]): pure antagonists |
| > 2000 |  |  |  | CC(=O)N[C@@H](Cc1ccccc1)C(=O)N[C@H]1CCCNC(=O)[C@H](CCCNC(=N)N)NC(=O)[C@H](Cc2c[nH]c3ccccc23)NC(=O)[C@@H](C)NC(=O)[C@@H]2CCCN2C1=O [compound 47] | IC50 (C5aR [2]): 24000 nM |

Second part, the molecule before the results:

| Molecule | IC50 (human C5aR(CD88) [1]; [8]) [nM] | inhibitory activity (in words) (human C5aR(CD88) [1]) | Solubility in 20 mM HEPES pH 7.4 (% of 200 μM) [4] | solubility in aqueous HEPES buffer (pH 7.4) [4] [%] | further results |
| --- | --- | --- | --- | --- | --- |
| CC(=O)N[C@@H](Cc1ccccc1)C(=O)N[C@H]1CCCNC(=O)[C@H](Cc2ccccc2)NC(=O)[C@H](Cc2c[nH]c3ccccc23)NC(=O)[C@@H](CC2CCCCC2)NC(=O)[C@@H]2CCCN2C1=O [Compound 1, Ac-Phe-[Orn-Pro-cha-Trp-Phe]] (Ac-F[Orn]P[dCha]WF; lactam 2-C) | 20 to 50 | without significant loss of activity | 8 % of 200 μM | 8 | IC50 (human C5aR(CD88) [1]; functional assay of example 11, values in text, read-out: IC50): 23 nM; inhibitory activity (in words) (human C5aR(CD88) [1]; listed as Ac-Phe-[Orn-Pro-cha-Trp-Phe]): noteworthy inhibitory activity; IC50 (C5aR [2]): 450 nM; EC50 (human C5aR(CD88) [3]; [9]): > 1430 nM; agonistic activity (in words) (human C5aR(CD88) [3]): pure antagonists; IC50 (C5aR [5]): 28 nM |
| CC(=O)N[C@@H](Cc1ccccc1)C(=O)N[C@H]1CCCNC(=O)[C@H](Cc2ccccc2)NC(=O)[C@H](Cc2c[nH]c3ccccc23)NC(=O)[C@@H](CC2CCCCC2)NC(=O)[C@@H]2C[C@@H](O)CN2C1=O [Compound 2, Ac-Phe-[Orn-Hyp-cha-Trp-Phe]] (Ac-F[Orn][Hyp][dCha]WF; lactam 2-C) | 20 to 50 | noteworthy inhibitory activity | 13 % of 200 μM | 13 | EC50 (human C5aR(CD88) [3]): > 1430 nM; agonistic activity (in words) (human C5aR(CD88) [3]): pure antagonists; Papp A→B at 120 min, 50 μM ([6]; Caco-2, TC-7 cells, 50 μM, apical pH 6.5, basolateral pH 7.4, 120 min at 37° C.): 14.2 ×10⁻⁶ cm/s; Papp A→B at 120 min, 50 μM ([6]; Caco-2, values in text): 14.3 ×10⁻⁶ cm/s |
| CC(=O)N[C@@H](Cc1ccccc1)C(=O)N[C@H]1CCCNC(=O)[C@H](CCCNC(=N)N)NC(=O)[C@H](Cc2c[nH]c3ccccc23)NC(=O)[C@@H](CC2CCCCC2)NC(=O)[C@@H]2CCCN2C1=O [Compound 40, Ac-Phe-[Orn-Pro-cha-Trp-Arg], reference compound] |  |  | 94 % of 200 μM | 94 |  |
| CC(C)NCC(O)COc1cccc2ccccc12 (centres unmarked) [Propanolol, reference compound] |  |  |  |  | Papp A→B at 120 min, 50 μM ([6]; Caco-2, values in text): 31.1 ×10⁻⁶ cm/s |
| (N-Ethyl)Phe-Lys-Ala-Cha-Ala-Leu-N-Methyl(D)ala-Arg-OH |  |  |  |  | IC50 (C5aR [7]; [10]): 11 nM |
| (N-Methyl)Phe-Lys-Pro-cha-Phe-Phenylbutanoyl |  |  |  |  | IC50 (C5aR [7]; [11]): 2600 nM |
| (N-Methyl)Phe-Lys-Pro-cha-ψ55 CH2—N(CH2CH2C6H5)}-Arg-OH |  |  |  |  | IC50 (C5aR [7]; [11]): 360 nM |
| Ac-Phe-Lys-Ala-Cha-Ala-Leu-N-Methyl(D)ala-Arg-OH |  |  |  |  | IC50 (C5aR [7]; [10]): 12 nM |
| Me-Phe-Lys-Pro-cha-Trp-arg |  |  |  |  | IC50 (human PMNs): 85 nM |
